Where “and” joins values, the source holds several entries; their conditions need not be identical. Identical values can stand only once. Like-named read-outs stand apart in the source and are kept apart here.
Tests used:
[1] = system: Human Multiple Myeloma Cells (MM.1S); assay: Anti-proliferation assay (ATPLite, 72 hours), MM.1S
[2] = system: Human Multiple Myeloma Cells (MM.1S); assay: Antiproliferative activity on MM.1S in the presence of beta adrenergic receptor antagonist (CGP 12177A or ICI 118,551); type: cell-based
beta 3 vs. beta 2 = details: Mol Phar 1994 46(2):357-63; cited from earlier work
[3] = system: Human Multiple Myeloma Cells (EJM); assay: Anti-proliferation assay (ATPLite, 72 hours), EJM; details: for Antiproliferative Activity: DEX μM r7-r15: 2.03, 0.675, 0.225, 0.075, 0.025, 0.00834, 0.00278, 0.00093, 0
RPMI-8226 cells = details: soft agar, three weeks
Method: The effect of BAR agonists on cells grown in soft agar was also determined. This approach allows the measurement of long term cell viability after single agent or combination treatment. […] Cells were washed and plated in soft agar. After three weeks colonies were counted to determine cell viability.

[4] = system: multiple myeloma tumor cells from patients; assay: MTT cell viability assay, multiple myeloma patient tumor cells; details: Homo sapiens, 48 h, read-out: tumor cell viability
From the text: Tumor cells were obtained via bone marrow aspirates and affinity selected using CD138-linked magnetic beads.

MM.1S cells = assay: Annexin V / propidium iodide apoptosis assay, MM.1S; type: cell-based, human; details: for induction of MM.1S cell apoptosis: 72 hours (FIG. 2)
Method: Effects on cell viability were determined by measuring the percent of cells that were annexin V positive (an early marker for apoptosis) and by measuring the percent of cells propidium iodide (PI) positive, an indicator that cellular membranes are compromised and a marker of cell death.

[5] = system: RPMI-8226 multiple myeloma (MM) xenograft; details: Day 19; 10 mg/kg salmeterol, 0.5 mg/kg bortezomib, or both
Method: Dexamethasone was administered by intraperitoneal (IP) injection daily for thirty-six treatments (QD×36). Bortezomib was injected intravenously (IV) every third day for six treatments (Q3D×6).
Group 1—Vehicle (90% PBS+10% EtOH)
Significant endpoints included mean tumor growth inhibition (TGI) or regression, animal weight loss, and potential toxicity. […] Animals were implanted with cancer cells harvested from tissue culture and allowed to establish tumors in SCID mice. Treatment initiated when the mean tumor volume reached 137 mm^3 in size.

[6] = system: Human Multiple Myeloma Cells (MM.1S)
[7] = system: Human Multiple Myeloma Cells (ANBL-6); assay: Anti-proliferation assay (ATPLite, 72 hours), ANBL-6
[8] = system: Human Multiple Myeloma Cells (MM.1S) cultured in the presence of BAR agonist for one month; assay: Antiproliferative activity on MM.1S cultured one month in the presence of salmeterol or salbutamol; type: cell-based; details: MM.1S cultured in Salbutamol for one month (final 150 nM), DEX (μM): 2.0, 0.666, 0.23, 0.074, 0.024, 0.0082, 0.00274, 0.0009, 0
From the text: A recurrent problem in cancer therapy is that prolonged exposure of tumor cells to chemotherapeutic agents can generate cells resistant to agents that initially have antiproliferative or cell killing activity. […] Cells cultured for one month in the presence of BAR agonist were washed to remove drug and put into 384 well plates for 9×9 dose matrix combination screening with BAR agonists and dexamethasone.

[9] = system: human multiple myeloma cells (MM.1R); assay: Antiproliferative activity of salbutamol on MM.1R after transfection of siRNA; type: cell-based; details: 72 hours (FIG. 4)
Method: Specific gene silencing was greater than 60% as determined by real time PCR analysis 48 hours post-transfection. At 48 hours post-transfection, cells were exposed to the beta 2 receptor agonist salbutamol and incubated an additional 72 hours, and the compounds were assayed for antiproliferative activity.

[10] = Homo sapiens, MM1.S, read-out: percent inhibition of cell proliferation
[11] = Homo sapiens, Multiple myeloma cell, 72 h, read-out: percent inhibition of cell proliferation
[12] = Homo sapiens, MM1.S, 72 h, read-out: percent inhibition of cell proliferation
[13] = Homo sapiens, MM1.S, 72 h, read-out: percent inhibition (% I)
[14] = Homo sapiens, MM1.S, read-out: Antiproliferative Activity (inhibition of proliferation)
[15] = Homo sapiens, ANBL-6, 72 h, read-out: percent inhibition (% I)
[16] = Homo sapiens, ANBL-6, read-out: percent inhibition of cell proliferation

CC(Cc1ccc(OCC(=O)O)cc1)NCC(O)c1cccc(Cl)c1 (stereo not drawn) [BRL37344, (4-(2-((2-(3-chlorophenyl)-2-hydroxyethyl)amino)propyl)phenoxy)acetic acid]
inhibition at 0.01 µM [1, 10]: 10%
inhibition at 0.02 µM [1, 10]: 10%
single agent antiproliferative activity ([1]; MM.1S (Table 45)): not very active
inhibition at 0.01 µM [2, 10]: -8.2%
inhibition at 0.02 µM [2, 10]: -12%
selectivity for beta 3 vs. beta 2 (beta 3 vs. beta 2): 76 fold

CC(C)(C)NCC(O)c1cc(Cl)c(N)c(Cl)c1 (stereo not drawn) [Clenbuterol]
inhibition at 0.0006 µM [1, 10]: 66%
inhibition at 0.01 µM [1, 10]: 78%
inhibition at […] [1, 10]: 61% and 62% and 57%

CC(CCc1ccc(O)cc1)NCCc1ccc(O)c(O)c1 (stereo not drawn) [Dobutamine, dobutamine]
inhibition at 0.0316 µM [3, 11]: -2.3%
inhibition at 0.506 µM [3, 11]: 21.5%
inhibition at 0.0316 µM [1, 12]: -2.04%
inhibition at 0.506 µM [1, 12]: 22.9%
inhibition at 1 µM [1, 10]: 28%
inhibition at […] ([2]; Homo sapiens, MM1.S, in the presence of 0.91 μM ICI, 118,551, Dobutamine 0.063 μM, Dexamethasone (μM) by row: r8 0.15, r9 0.076, r10 0.038, r11 0.019, r12 0.0095, r13 0, read-out: percent inhibition of cell proliferation): 2.2%
inhibition at […] ([2]; Homo sapiens, MM1.S, in the presence of 0.91 μM ICI, 118,551, Dobutamine 0.13 μM, Dexamethasone (μM) by row: r8 0.15, r9 0.076, r10 0.038, r11 0.019, r12 0.0095, r13 0, read-out: percent inhibition of cell proliferation): 2%
inhibition at […] ([2]; Homo sapiens, MM1.S, in the presence of 0.91 μM ICI, 118,551, Dobutamine 0.25 μM, Dexamethasone (μM) by row: r8 0.15, r9 0.076, r10 0.038, r11 0.019, r12 0.0095, r13 0, read-out: percent inhibition of cell proliferation): -5.4%
inhibition at […] ([2]; Homo sapiens, MM1.S, in the presence of 0.91 μM ICI, 118,551, Dobutamine 0.51 μM, Dexamethasone (μM) by row: r8 0.15, r9 0.076, r10 0.038, r11 0.019, r12 0.0095, r13 0, read-out: percent inhibition of cell proliferation): -2.8%
inhibition at 1 µM ([2]; Homo sapiens, MM1.S, in the presence of 0.91 μM ICI, 118,551, Dobutamine 1.0 μM, Dexamethasone (μM) by row: r8 0.15, r9 0.076, r10 0.038, r11 0.019, r12 0.0095, r13 0, read-out: percent inhibition of cell proliferation): -1.8%

Cc1ccc(OCC(O)C(C)NC(C)C)c2c1CCC2 (stereo not drawn) [ICI, 118,551]
percent inhibition of cell proliferation ([2]; in the presence of […] ICI, 118,551, Dobutamine 0 μM, Dexamethasone (μM) by row: r8 0.15, r9 0.076, r10 0.038, r11 0.019, r12 0.0095, r13 0 (ICI alone)): 1.9%

CCC(NC(C)C)C(O)c1ccc(O)c(O)c1 (stereo not drawn) [Isoetharine]
Antiproliferative Activity ([3]; Isoetharine 0.000158 μM): 7.35
Antiproliferative Activity ([3]; Isoetharine 0.000316 μM): 7.35
Antiproliferative Activity ([3]; Isoetharine 0.00506 μM): 29

CC(C)C[C@H](NC(=O)[C@H](Cc1ccccc1)NC(=O)c1cnccn1)B(O)O [bortezomib]
colony number per 10,000 cells plated (RPMI-8226 cells; 100 nM bortezomib for 5 hours): 39 colonies
colony number per 10,000 cells plated (RPMI-8226 cells; 200 nM bortezomib for 5 hours): 7 colonies
viability at 0.002 µM [4]: 80%
cells annexin V positive (MM.1S cells; 2 nM bortezomib, 72 hours (FIG. 3)): 50%
tumor growth inhibition (TGI) [5]: 38%
inhibition [6]: 30.8% and 19.6%

COc1ccc(CC(C)NCC(O)c2ccc(O)c(NC=O)c2)cc1 (stereo not drawn) [formoterol]
inhibition at 2.53 pM [1, 13]: 18.9%
inhibition at 5.06 pM [1, 13]: 23.8%
inhibition at 10.1 pM [1, 13]: 40.8%
inhibition at 20.2 pM [1, 13]: 52.7%
inhibition at 40.5 pM [1, 13]: 54.7%
inhibition at 81 pM [1, 13]: 65.9%
inhibition at 2.53 pM [1, 14]: 22.4%
inhibition at 5.06 pM [1, 14]: 36.2%
inhibition at 10.1 pM [1, 14]: 40.7%
inhibition at 20.2 pM [1, 14]: 51%
inhibition at 40.5 pM [1, 14]: 57.5%
inhibition at 81 pM [1, 14]: 65.7%
inhibition at 20.2 pM ([1]; Homo sapiens, MM1.S, read-out: inhibition of proliferation, single agent): 51%
inhibition at 2.53 pM [7, 15]: 23.3%
inhibition at 5.06 pM [7, 15]: 26.7%
inhibition at 10.1 pM [7, 15]: 30%
inhibition at 20.2 pM [7, 15]: 39.9%
inhibition at 40.5 pM [7, 15]: 48.8%
inhibition at 81 pM [7, 15]: 55.4%

Nc1cccc2c1CN(C1CCC(=O)NC1=O)C2=O (stereo not drawn) [lenalidomide]
induction of MM.1S cell apoptosis (MM.1S cells; 1 μM lenalidomide): negligible effects
Antiproliferative Activity ([7]; Salmeterol 0 μM (LEN alone), LEN μM r7-r15: 4.04, 2.02, 1.01, 0.505, 0.253, 0.126, 0.0632, 0.0316, 0): 53.5 and 51.8 and 52.5 and 44.8 and 34.3 and 61.9 and 52.8 and 54.3

CC(C)(C)NCC(O)c1ccc(O)c(CO)c1 (stereo not drawn) [salbutamol]
percent inhibition of cell proliferation ([8]; Salbutamol 0.00375 μM): −5.8%
percent inhibition of cell proliferation ([8]; Salbutamol 0.00625 μM): 4.6%
percent inhibition of cell proliferation ([8]; Salbutamol 0.0125 μM): −1.9%
percent inhibition of cell proliferation ([8]; Salbutamol 0.05 μM): 1.5%
percent inhibition of cell proliferation ([8]; Salbutamol 0.1 μM): 11%
percent inhibition of cell proliferation ([8]; Salbutamol 0.2 μM): 6.8%
inhibition of proliferation ([9]; MM.1R transfected with A2A receptor siRNA or control siRNA): 65-68%
Antiproliferative Activity ([9]; MM.1R transfected with two different siRNA targeting the beta 2 receptor): 39-45%
inhibition at 9.1 pM [1, 10]: 10%
inhibition at 0.00375 µM [1, 10]: 15%
inhibition at 0.00625 µM [1, 10]: 30%
inhibition at 0.0125 µM [1, 10]: 39%
inhibition at 0.05 µM [1, 10]: 51%
inhibition at 0.1 µM [1, 10]: 55%
inhibition at 0.2 µM [1, 10]: 58%

COc1cc2c(cc1OC)-c1cc(=Nc3c(C)cc(C)cc3C)n(C)c(=O)n1CC2 [trequinsin, 2,3,6,7-tetrahydro-9,10-dimethoxy-3-methyl-2-((2,4,6-trimethylphenyl)imino)-4H-pyrimido(6,1-a)isoquinolin-4-one]
induction of MM.1S cell apoptosis (MM.1S cells; 2 μM trequinsin): negligible effects
inhibition at 0.00464 µM [7, 16]: 2.91%
inhibition at 0.125 µM [7, 16]: 4.39%
inhibition at 0.375 µM [7, 16]: 7.82%

Reference: patent US20100009934A1, “BETA ADRENERGIC RECEPTOR AGONISTS FOR THE TREATMENT OF B-CELL PROLIFERATIVE DISORDERS” (CombinatoRx, Incorporated, priority 2008, published 2010)
